Patent US20090042917A1, “Aminopyrimidine Derivative and Plant Disease Control Agent for Agricultural or Horticultural Use” (KUMIAI CHEMICAL INDUSTRY CO., LTD., priority 2006, published 2009)

Legend:
[1] = system: Pyricularia oryzae; assay: whole plant or invertebrate; type: in vivo; conditions: for pest or weed control at 500 ppm: Pyricularia oryzae, 120 h, read-out: control level
[2] = system: Rhizoctonia solani; assay: Test on protective effect against Rhizoctonia solani (rice pot test); type: in vivo; conditions: 500 ppm active ingredient sprayed on rice (Kinmaze) at 2.5 to 3-leaf stage before inoculation, 5 days after inoculation; for pest or weed control at 500 ppm: Rhizoctonia solani, 120 h, read-out: control level
Procedure: 15 rice seeds (variety: Kinmaze) were sown in each clay pot having a diameter of 7.5 cm and allowed to grow for 3 weeks in a greenhouse. […] After air drying, the plants were inoculated by uniformly covering the surface of the soil with Rhizoctonia solani cultured in a rice-husk bran medium and incubated in a moist chamber at 30° C. […] The standard for disease development index is as follows: [table] Hereinbelow, an expression to calculate a control level (%) is shown. [formula]

[3] = system: Pseudoperonospora cubensis; assay: Test on protective effect against Pseudoperonospora cubensis (cucumber seedlings); type: in vivo; conditions: 500 ppm active ingredient sprayed on cucumber (Sagami-Hanziro) seedlings before inoculation, 6 days after; for pest or weed control at 500 ppm: Pseudoperonospora cubensis, 144 h, read-out: control level
Procedure: 4 cucumber seeds (variety: Sagami-Hanziro) were sown in each plastic cup having a diameter of 5.5 cm and allowed to grow for 7 days in a greenhouse. […] After air drying, the plants were inoculated by spraying with a conidia suspension of Pseudoperonospora cubensis. The inoculated plants were immediately put in a moist chamber at 20° C. (relative humidity of 100%) for 24 hours. Thereafter, the plants were transferred to a greenhouse. 6 days after, disease development indexes of cotyledons for total pots were examined according to the standard described below, a disease severity was determined using an expression shown below and a control level (%) was calculated using another expression shown below. The standard for disease development index is as follows: [table] Hereinbelow, an expression to calculate a disease severity (%) is shown. [formula] Hereinbelow, an expression to calculate a control level (%) is shown. [formula]

[4] = system: Botrytis cinerea; assay: Test on protective effect against Botrytis cinerea (cucumber seedlings); type: in vivo; conditions: 500 ppm active ingredient sprayed on cucumber (Sagami-Hanziro) seedlings before inoculation; 2 days after
Procedure: 4 cucumber seeds (variety: Sagami-Hanziro) were sown in each plastic cup having a diameter of 5.5 cm and allowed to grow for 7 days in a greenhouse. […] After air drying, a sterilized paper disc was immersed in a conidia suspension of Botrytis cinerea and laid on an upper side of a cucumber cotyledon for innoculation and thereafter cared in a moist chamber at 20° C.

[5] = system: Septoria nodorum; assay: Test on protective effect against Septoria nodorum (wheat); type: in vivo; conditions: 500 ppm active ingredient sprayed on wheat (Norin No. 61) at two-leaf stage before inoculation, 9 days after; for pest or weed control at 500 ppm: Parastagonospora nodorum, 216 h, read-out: control level
Procedure: 10 wheat seeds (variety: Norin No. 61) were sown in each plastic cup having a diameter of 5.5 cm and allowed to grow for 9 days in a greenhouse. […] After air drying, the plants were inoculated by spraying with a pycnidiospore suspension of Septoria nodorum. The inoculated plants were immediately put in a moist chamber at 25° C. (relative humidity of 100%) for 48 hours. Thereafter, the plants were transferred to a greenhouse. 9 days after, disease development indexes of first leaves for total pots were examined according to the standard in Test Example 3, a disease severity was determined using the expression in Test Example 3 and a control level (%) was calculated using the expression in Test Example 3.

[6] = system: Erysiphe graminis; assay: Test on protective effect against Erysiphe graminis (wheat); type: in vivo; conditions: Blumeria graminis, 168 h; 500 ppm active ingredient sprayed on wheat (Norin No. 61) at 1.5 to 2-leaf stage before inoculation; 7 days after; read-out: control level
Procedure: 10 wheat seeds (variety: Norin No. 61) were sown in each plastic cup having a diameter of 5.5 cm and allowed to grow for 8 days in a greenhouse. […] After air drying, the plants were inoculated by equally sprinkling with conidia of Erysiphe graminis by using a midget duster or the like for innoculation and then incubated in a greenhouse until a development of disease. 7 days after, disease development indexes of first leaves for total pots were examined according to the standard in Test Example 3, a disease severity was determined using the expression in Test Example 3 and a control level (%) was calculated using the expression in Test Example 3.

SMILES	pest or weed control at 500 ppm [2] [%]	pest or weed control at 500 ppm [5] [%]	pest or weed control at 500 ppm [1] [%]	pest or weed control at 500 ppm [6] [%]	melting point [°C]	pest or weed control at 500 ppm [3] [%]	other results
Clc1nc(-n2cccn2)nc(N2CCCC2)c1Cc1ccccc1 [Comparative Compound 1, reference compound]	–	–	–	–	–	–	control level ([1]; 500 ppm active ingredient sprayed on rice (Aichi Asahi) at four-leaf stage before inoculation, lesions counted 5 days after inoculation): did not exhibit a control effect; control level [2]: did not exhibit a control effect; control level [3]: did not exhibit a control effect; control level [4]: did not exhibit a control effect; control level [5]: did not exhibit a control effect
Cc1cc(C)n(-c2nc(C)c(C)c(NN)n2)n1 [Comparative Compound 2, reference compound]	50	75	–	–	–	–	control level [4]: 25%
CCC(C)c1c(NC(C)C)nc(-n2cccn2)nc1C(F)(F)F (centres unmarked) [Compound No. 0240, 5-sec-butyl-N-(1-methylethyl)-2-(1H-pyrazol-1-yl)-6-trifluoromethylpyrimidine-4-amine]	–	–	100	100	85 to 87	–	–
CCC(C)c1c(F)nc(-n2cccn2)nc1NCC(F)(F)F (centres unmarked) [Compound No. 0349, 5-sec-butyl-6-fluoro-2-(1H-pyrazol-1-yl)-N-(2,2,2-trifluoroethyl)pyrimidine-4-amine]	100	100	100	100	132 to 134	100	–
CCC(C)c1c(Cl)nc(-n2cccn2)nc1NCC(F)(F)F (centres unmarked) [Compound No. 0350, 5-sec-butyl-6-chloro-2-(1H-pyrazol-1-yl)-N-(2,2,2-trifluoroethyl)pyrimidine-4-amine]	100	100	100	100	137 to 139	100	–
CCC(C)c1c(Br)nc(-n2cccn2)nc1NCC(F)(F)F (centres unmarked) [Compound No. 0351, 6-bromo-5-sec-butyl-2-(1H-pyrazol-1-yl)-N-(2,2,2-trifluoroethyl)pyrimidine-4-amine]	100	100	100	100	136 to 139	100	–
CCC(C)c1c(O)nc(-n2cccn2)nc1NCC(F)(F)F (centres unmarked) [Compound No. 0353, 5-sec-butyl-2-(1H-pyrazol-1-yl)-6-(2,2,2-trifluoroethylamino)pyrimidin-4-ol]	–	–	–	–	141 to 143	–	–
CCC(C)c1c(NCC(F)(F)F)nc(-n2cccn2)nc1OC(F)F (centres unmarked) [Compound No. 0358, 5-sec-butyl-6-difluoromethoxy-2-(1H-pyrazol-1-yl)-N-(2,2,2-trifluoroethyl)pyrimidine-4-amine]	–	–	100	100	94 to 95	100	–
CCC(C)c1c(NCC(F)(F)F)nc(-n2cccn2)nc1SC (centres unmarked) [Compound No. 0361, 5-sec-butyl-6-methylthio-2-(1H-pyrazol-1-yl)-N-(2,2,2-trifluoroethyl)pyrimidine-4-amine]	100	–	100	100	–	100	–
CCC(C)c1c(NCC(F)(F)F)nc(-n2cccn2)nc1S(C)(=O)=O (centres unmarked) [Compound No. 0363, 5-sec-butyl-6-methylsulfonyl-2-(1H-pyrazol-1-yl)-N-(2,2,2-trifluoroethyl)pyrimidine-4-amine]	–	–	–	–	52 to 55	–	–
CCC(C)c1c(NCC(F)(F)F)nc(-n2cccn2)nc1N(CC)CC (centres unmarked) [Compound No. 0371, 5-sec-butyl-N^4, N^4-diethyl-2-(1H-pyrazol-1-yl)-N^6-(2,2,2-trifluoroethyl)pyrimidine-4,6-diamine]	–	–	–	100	–	100	–
CCc1nc(-n2cccn2)nc(NCC(F)(F)F)c1C(C)CC (centres unmarked) [Compound No. 0385, 5-sec-butyl-6-ethyl-2-(1H-pyrazol-1-yl)-N-(2,2,2-trifluoroethyl)pyrimidine-4-amine]	–	100	100	100	89 to 90	100	–
CCC(C)c1c(NCC(F)(F)F)nc(-n2cccn2)nc1C1CC1 (centres unmarked) [Compound No. 0387, 5-sec-butyl-6-cyclopropyl-2-(1H-pyrazol-1-yl)-N-(2,2,2-trifluoroethyl)pyrimidine-4-amine]	100	–	100	100	84 to 85	100	–
CCC(C)c1c(Cl)nc(-n2cc(Cl)cn2)nc1NCC(F)(F)F (centres unmarked) [Compound No. 0434, 5-sec-butyl-6-chloro-2-(4-chloro-1H-pyrazol-1-yl)-N-(2,2,2-trifluoroethyl)pyrimidine-4-amine]	100	–	100	100	173 to 174	–	–
CCOC(=O)c1cnn(-c2nc(Cl)c(C(C)CC)c(NCC(F)(F)F)n2)c1N (centres unmarked) [Compound No. 0601, ethyl 5-amino-1-[5-sec-butyl-4-chloro-6-(2,2,2-trifluoroethylamino)pyrimidin-2-yl]-1H-pyrazol-4-carboxylate]	–	–	–	–	173 to 174	–	–
CCC(C)c1cnc(-n2cccn2)nc1N1CCC(C)CC1 (centres unmarked) [Compound No. 1190, 5-sec-butyl-4-(4-methylpiperidin-1-yl)-2-(1H-pyrazol-1-yl)pyrimidine]	100	100	–	100	–	100	–
CCC(C)c1c(Cl)nc(-n2cccn2)nc1N1CCC(C)CC1 (centres unmarked) [Compound No. 1192, 5-sec-butyl-4-chloro-6-(4-methylpiperidin-1-yl)-2-(1H-pyrazol-1-yl)pyrimidine]	100	–	–	100	–	–	–
CCC(C)c1c(SC)nc(-n2cccn2)nc1N1CCC(C)CC1 (centres unmarked) [Compound No. 1204, 5-sec-butyl-6-(4-methylpiperidin-1-yl)-4-methylthio-2-(1H-pyrazol-1-yl)pyrimidine]	100	–	–	100	69 to 71	–	–
CCC(C)c1c(C#N)nc(-n2cccn2)nc1N1CCC(C)CC1 (centres unmarked) [Compound No. 1215, 5-sec-butyl-6-(4-methylpiperidin-1-yl)-2-(1H-pyrazol-1-yl)pyrimidine-4-carbonitrile]	100	–	–	100	–	100	–
CCC(C)c1c(C)nc(-n2cccn2)nc1N1CCC(C)CC1 (centres unmarked) [Compound No. 1225, 5-sec-butyl-4-methyl-6-(4-methylpiperidin-1-yl)-2-(1H-pyrazol-1-yl)pyrimidine]	–	100	–	100	–	100	–
